The subject of one experiment is rat insulin I promoter. In words: Rat insulin I promoter luciferase reporter (-410 INS-luc) in transfected INS-1 cells. In kind it is cell-based. Conditions: absence of the Shh expression construct, dose-dependent, FIG. 19.
Experiment [1] concerns INS-1 cells. Description: Insulin secretion by INS-1 cells into medium over 24 h (Rat Insulin RIA). It counts as cell-based. Conditions: INS-1 cells transfected with pEV control and insulin promoter-reporter construct; 24 h exposure; increasing amounts; FIG. 15. Here is the method:
(§1) This potential role was examined with the rat INS-1 cell line, which intrinsically expresses Ihh and Dhh proteins (FIGS. 13 and 14). […] Insulin levels were measured with a Rat Insulin RIA Kit (LINCO Research, Inc., St. Louis, Mo.) using the protocol outlined by the manufacturer. […] After 24 hours of incubation, 500 μL aliquots of culture medium were removed and serially diluted for the assay. Culture medium that was not exposed to cells was tested as a negative control for the assay. In some experiments, transfected cells were assessed for insulin secretion rates. In these experiments, after incubation with lipofectamine and DNA, the transfected cells received fresh culture medium and 24-hour insulin secretion rates were assessed. Given that the cells intrinsically express hedgehog, the cells were also treated with cyclopamine in the absence of any transfection. […] Cells were then rinsed in phosphate buffered saline and lysed in 0.1N HCl in 100% ethanol at 4° C. The lysate was incubated overnight at−70° C. The thawed lysate was vortexed and subjected to brief centrifugation at 14,000 rpm. The resulting supernatant was dried under vacuum, resuspended in […] Assay buffer, and serially diluted for insulin measurements with the Rat Insulin RIA Kit.

The subject of experiment [2] is insulin mRNA in INS-1 cells. Description: Northern blot of insulin mRNA levels in INS-1 cells. Conditions: 20 μM, Northern RNA blots, FIG. 17. It counts as cell-based, rat. The procedure:
For isolation of total RNA, cells were washed in phosphate buffered saline and lysed with Tri-Reagent (SIGMA, St-Louis, Mo.). Total cellular RNA was prepared according to the manufacturer's protocol. For each sample, 4 μg total RNA was separated by electrophoresis on a denaturing gel consisting of 1× MOPS, 1.2% agarose and 1% formaldehyde. Samples were transferred using standard methods (Ausubel et al., Short Protocols in Molecular Biology, Third Edition, John Wiley and Sons, Inc., 1995.) to nylon membranes (Hybond-N+, Amersham Pharmacia Biotech, Inc., Piscataway, N.J.) and crosslinked with ultraviolet light (UV Stratalinker 1800, Stratagene, La Jolla, Calif.). The membranes were prehybridized in Rapid-Hyb Buffer (Amersham Pharmacia Biotech, Inc.) prior to hybridization for 4 hours at 65° C. with radiolabeled probes. Insulin transcripts were probed with a 231 nucleotide fragment (spanning nucleotides 349 to 580 of the rat insulin I gene, Genbank acc. no. V01242) of rat insulin I cDNA. […] For quantitation, autoradiograms were scanned with a Computing Densitometer (Molecular Dynamics, Sunnyvale, Calif.) and individual band intensities were determined with ImageQuant software (Molecular Dynamics, Sunnyvale, Calif.). […]

Experiment [3] relates to INS-1 cells. Description: Cellular insulin content of INS-1 cells (Rat Insulin RIA of lysate). In kind it is cell-based. Conditions: untransfected INS-1 cells, 20 μM, 24 hours; FIG. 16. The procedure: as §1

Protocol for rat insulin I promoter: To determine whether hedgehog regulation of insulin production occurs at the transcriptional level, INS-1 cells were transiently transfected with 5-6 μg total DNA and 10 μL Lipofectamine according to the manufacturer's instructions (GIBCO BRL Life Technologies, Inc., Gaithersburg, Md.) with increasing concentrations of Shh expression vector pSHH in the presence of a rat insulin I promoter-reporter construct −410 INS-luc. […] The plasmid −410 INS-LUC consists of a fragment of the rat insulin I gene promoter that spans nucleotides −410 to +49 inserted into the pXP2 vector that includes firefly luciferase reporter sequences (Lu, M., et al, 1997, J. Biol. Chem.: 272:28349). […] For luciferase assays, cells were harvested 24 hours after transfection with 1× Reporter Lysis Buffer (Promega, Madison, Wis.). Luciferase assays were conducted with the Luciferase Assay System as outlined by the manufacturer (Promega, Madison, Wis.). Luciferase activities were normalized for extract protein concentrations as determined by the Bio-Rad Protein Assay (Bio-Rad Laboratories, Hercules, Calif.), a modified Bradford assay (Bradford, M., 1976, Anal. Biochem., 72:248).

On to `CC1=C2C[C@H]3[C@@H](CC=C4C[C@@H](O)CC[C@@]43C)[C@@H]2CC[C@]12O[C@@H]1C[C@H](C)CN[C@H]1[C@H]2C` [cyclopamine], for which the “inhibition of basal insulin promoter activity” value with rat insulin I promoter is given as “up to 90%”. Besides, the “effect on insulin secretion” value in the experiment on INS-1 cells [1] was “increasingly inhibited insulin secretion”. For the same molecule, in experiment [2], the “levels of insulin mRNA” value was “decrease in the levels of insulin mRNA”. Moreover, the “reduction in cellular insulin content” value with INS-1 cells [3] is given as 40%.

Values taken from US7632812B2, “Methods to stimulate insulin production by pancreatic β-cells” (Massachusetts General Hospital, priority 1999, dated 2009).
